Values quoted from earlier work, collected in PubChem BioAssay AID1259409 (Chemical Carcinogenesis Research Information System (CCRIS), 2018).

Tested on: rodent chemically induced tumor inhibition, incidence and multiplicity
Assay: CCRIS tumor inhibitor studies
Conditions: Route [Inhibitor]: ORAL, Promoter: NONE USED

For `Cc1c(-c2cnccn2)ssc1=S`, the “tumour outcome (control, treated, inhibition, significance)” value (Carcinogen: AZOXYMETHANE, 25843-45-2, Dose [Inhibitor]: 0, 200 PPM IN DIET FOR 56 WK BEGINNING 2 WK PRIOR TO CARCINOGEN TREATMENT (STUDY DURATION: 56 WK), Species: RAT, Strain/Sex: F344/MALE, Target Tissue: Type of Lesion: SMALL INTESTINE (DISTAL): TUMOR, Dose [Carcinogen]: 15 MG/KG 1/WK FOR 2 WK) is given as 12%, 5%, 58%, not significant, the “tumour outcome (control, treated, inhibition, significance)” value (Carcinogen: AZOXYMETHANE, 25843-45-2, Dose [Inhibitor]: 0, 200 PPM IN DIET FOR 56 WK BEGINNING 2 WK PRIOR TO CARCINOGEN TREATMENT (STUDY DURATION: 56 WK), Species: RAT, Strain/Sex: F344/MALE, Target Tissue: Type of Lesion: SMALL INTESTINE (PROXIMAL): TUMOR, Dose [Carcinogen]: 15 MG/KG 1/WK FOR 2 WK) is given as 33%, 14%, 58%, not significant and the “tumour outcome (control, treated, inhibition, significance)” value (Carcinogen: AZOXYMETHANE, 25843-45-2, Dose [Inhibitor]: 0, 400 PPM IN DIET 7 WK PRIOR TO CARCINOGEN TREATMENT AND CONTINUING FOR STUDY DURATION (STUDY DURATION: 59 WK), Species: RAT, Strain/Sex: F344/MALE, Target Tissue: Type of Lesion: COLON: ADENOCARCINOMA, Dose [Carcinogen]: 15 MG/KG 1/WK FOR 2 WK) is given as 72%, 50%, 31%, p<0.05. For the same compound, the “tumour outcome (control, treated, inhibition, significance)” value (Carcinogen: AZOXYMETHANE, 25843-45-2, Dose [Inhibitor]: 0, 400 PPM IN DIET 7 WK PRIOR TO CARCINOGEN TREATMENT AND CONTINUING FOR STUDY DURATION (STUDY DURATION: 59 WK), Species: RAT, Strain/Sex: F344/MALE, Target Tissue: Type of Lesion: COLON: ADENOMA, Dose [Carcinogen]: 15 MG/KG 1/WK FOR 2 WK) was 14%, 8%, 43%, not calculated, the “tumour outcome (control, treated, inhibition, significance)” value (Carcinogen: AZOXYMETHANE, 25843-45-2, Dose [Inhibitor]: 0, 400 PPM IN DIET 7 WK PRIOR TO CARCINOGEN TREATMENT AND CONTINUING FOR STUDY DURATION (STUDY DURATION: 59 WK), Species: RAT, Strain/Sex: F344/MALE, Target Tissue: Type of Lesion: SMALL INTESTINE: ADENOCARCINOMA, Dose [Carcinogen]: 15 MG/KG 1/WK FOR 2 WK) was 50%, 8%, 84%, p<0.001 and the “tumour outcome (control, treated, inhibition, significance)” value (Carcinogen: AZOXYMETHANE, 25843-45-2, Dose [Inhibitor]: 0, 400 PPM IN DIET 7 WK PRIOR TO CARCINOGEN TREATMENT AND CONTINUING FOR STUDY DURATION (STUDY DURATION: 59 WK), Species: RAT, Strain/Sex: F344/MALE, Target Tissue: Type of Lesion: SMALL INTESTINE: ADENOMA, Dose [Carcinogen]: 15 MG/KG 1/WK FOR 2 WK) was 3%, 0%, 100%, not calculated. The “tumour outcome (control, treated, inhibition, significance)” value (Carcinogen: AZOXYMETHANE, 25843-45-2, Dose [Inhibitor]: 0, 400 PPM IN DIET FOR 56 WK BEGINNING 2 WK PRIOR TO CARCINOGEN TREATMENT (STUDY DURATION: 56 WK), Species: RAT, Strain/Sex: F344/MALE, Target Tissue: Type of Lesion: COLON (DISTAL): TUMOR, Dose [Carcinogen]: 15 MG/KG 1/WK FOR 2 WK) was 47%, 36%, 23%, not significant, the “tumour outcome (control, treated, inhibition, significance)” value (Carcinogen: AZOXYMETHANE, 25843-45-2, Dose [Inhibitor]: 0, 400 PPM IN DIET FOR 56 WK BEGINNING 2 WK PRIOR TO CARCINOGEN TREATMENT (STUDY DURATION: 56 WK), Species: RAT, Strain/Sex: F344/MALE, Target Tissue: Type of Lesion: COLON (PROXIMAL): TUMOR, Dose [Carcinogen]: 15 MG/KG 1/WK FOR 2 WK) was 39%, 36%, 8%, not significant and the “tumour outcome (control, treated, inhibition, significance)” value (Carcinogen: AZOXYMETHANE, 25843-45-2, Dose [Inhibitor]: 0, 400 PPM IN DIET FOR 56 WK BEGINNING 2 WK PRIOR TO CARCINOGEN TREATMENT (STUDY DURATION: 56 WK), Species: RAT, Strain/Sex: F344/MALE, Target Tissue: Type of Lesion: SMALL INTESTINE (PROXIMAL): TUMOR, Dose [Carcinogen]: 15 MG/KG 1/WK FOR 2 WK) was 33%, 5%, 85%, p<0.05. The “tumour outcome (control, treated, inhibition, significance)” value (Carcinogen: AZOXYMETHANE, 25843-45-2, Dose [Inhibitor]: 0, 400 PPM IN DIET FOR 56 WK BEGINNING 2 WK PRIOR TO CARCINOGEN TREATMENT (STUDY DURATION: 56 WK), Species: RAT, Strain/Sex: F344/MALE, Target Tissue: Type of Lesion: SMALL INTESTINE(DISTAL): TUMOR, Dose [Carcinogen]: 15 MG/KG 1/WK FOR 2 WK) was 12%, 5%, 58%, not significant, the “tumour outcome (control, treated, inhibition, significance)” value (Carcinogen: AZOXYMETHANE, 25843-45-2, Dose [Inhibitor]: O, 200 PPM IN DIET 7 WK PRIOR TO CARCINOGEN TREATMENT AND CONTINUING FOR STUDY DURATION (STUDY DURATION: 59 WK), Species: RAT, Strain/Sex: F344/MALE, Target Tissue: Type of Lesion: SMALL INTESTINE, ADENOMA, Dose [Carcinogen]: 15 MG/KG 1/WK FOR 2 WK) was 3%, 0%, 100%, not calculated and the “tumour outcome (control, treated, inhibition, significance)” value (Carcinogen: BENZO[A]PYRENE, 50-32-8, Dose [Inhibitor]: 0, 180 PPM IN DIET FOR 36 WK BEGINNING 48 HR PRIOR TO CARCINOGEN DOSE (STUDY DURATION: 36 WK), Species: MOUSE, Strain/Sex: STRAIN-A/FEMALE, Target Tissue: Type of Lesion: LUNG: TUMOR, Dose [Carcinogen]: 100 MG/KG IN 0.1 ML OF TRICAPRYLIN ONCE) was 100%, 100%, 0%, not significant. For the same compound, the “tumour outcome (control, treated, inhibition, significance)” value (Carcinogen: BENZO[A]PYRENE, 50-32-8, Dose [Inhibitor]: 0, 360 PPM IN DIET FOR 36 WK BEGINNING 48 HR PRIOR TO CARCINOGEN DOSE (STUDY DURATION: 36 WK), Species: MOUSE, Strain/Sex: STRAIN-A/FEMALE, Target Tissue: Type of Lesion: LUNG: TUMOR, Dose [Carcinogen]: 100 MG/KG IN 0.1 ML OF TRICAPRYLIN ONCE) was 100%, 100%, 0%, not significant, the “tumour outcome (control, treated, inhibition, significance)” value (Carcinogen: DIETHYLNITROSAMINE, 55-18-5, Dose [Inhibitor]: 0, 300 MG/KG DIET FOR DURATION OF STUDY BEGINNING 1 WK PRIOR TO CARCINOGEN TREATMENT (STUDY DURATION: 25 WK), Species: HAMSTER, Strain/Sex: SYRIAN/MALE, Target Tissue: Type of Lesion: LUNG: CARCINOMA, Dose [Carcinogen]: 17.8 MG/KG BW 2/WK FOR 20 WK) was 50%, 33%, 34%, not significant and the “tumour outcome (control, treated, inhibition, significance)” value (Carcinogen: DIETHYLNITROSAMINE, 55-18-5, Dose [Inhibitor]: 0, 300 MG/KG DIET FOR DURATION OF STUDY BEGINNING 1 WK PRIOR TO CARCINOGEN TREATMENT (STUDY DURATION: 25 WK), Species: HAMSTER, Strain/Sex: SYRIAN/MALE, Target Tissue: Type of Lesion: TRACHEA: PAPILLOMA, Dose [Carcinogen]: 17.8 MG/KG BW 2/WK FOR 20 WK) was 95%, 85%, 11%, not significant. The “tumour outcome (control, treated, inhibition, significance)” value (Carcinogen: DIETHYLNITROSAMINE, 55-18-5, Dose [Inhibitor]: 0, 600 MG/KG DIET FOR DURATION OF STUDY BEGINNING 1 WK PRIOR TO CARCINOGEN TREATMENT (STUDY DURATION: 25 WK), Species: HAMSTER, Strain/Sex: SYRIAN/MALE, Target Tissue: Type of Lesion: LUNG: CARCINOMA, Dose [Carcinogen]: 17.8 MG/KG BW 2/WK FOR 20 WK) was 60%, 0%, 100%, p<0.0001.
